Assays:
Mus musculus [1] = organism: Mus musculus; assay: Inhibitory concentration of compound on nitric oxide (NO) production in lipopolysaccharide activated mouse peritoneal macrophages; format: functional
Mus musculus [2] = organism: Mus musculus; assay: Percent inhibition of nitric oxide (NO) production in lipopolysaccharide activated mouse peritoneal macrophages at 100 uM of compound; format: functional
[3] = Concentration with cytotoxic effect on mouse peritoneal macrophages

For `C=C[C@H](OC(C)=O)c1ccccc1`, the IC50 (Mus musculus [1]; read-out: IC50) was > 100 µM and the Inhibition (Mus musculus [2]) was 20%.
`C=CCc1ccc(OC(C)=O)cc1` gave an IC50 (Mus musculus [1]; read-out: IC50) of 65 µM.
With `OC/C=C/c1ccc(O)cc1` the IC50 (Mus musculus [1]; read-out: IC50) was > 100 µM and the Inhibition (Mus musculus [2]) was 24%.
`C=C[C@H](OC(C)=O)c1ccc(OC(C)=O)c(OC)c1` gave an IC50 (Mus musculus [1]; read-out: IC50) of 11 µM.
In the case of `CC(=O)OC/C=C/c1ccc(O)cc1`, the IC50 (Mus musculus [1]; read-out: IC50) is reported as 72 µM.
In the case of `C=CCc1ccc(O[C@@H]2O[C@H](CO)[C@@H](O)[C@H](O)[C@H]2O)cc1`, the IC50 (Mus musculus [1]; read-out: IC50) is reported as > 100 µM and the Inhibition (Mus musculus [2]) is reported as 6%.
With `C=CC(OC)c1ccc(OC)cc1` (configuration not stated) the IC50 (Mus musculus [1]; read-out: IC50) was > 100 µM and the Inhibition (Mus musculus [2]) was 22%.
With `C=CCC(O)c1ccc(O)cc1` (configuration not stated) the IC50 (Mus musculus [1]; read-out: IC50) was > 100 µM and the Inhibition (Mus musculus [2]) was 13%.
`C=CC(OC(=O)CC)c1ccc(OC(=O)CC)cc1` (configuration not stated) showed an IC50 (Mus musculus [1]; read-out: IC50) of 30 µM.
In the case of `CC[C@H](OC(C)=O)c1ccccc1`, the IC50 (Mus musculus [1]; read-out: IC50) is reported as > 100 µM and the Inhibition (Mus musculus [2]) is reported as 25%.
`CCC(OC(C)=O)c1ccccc1OC(C)=O` (configuration not stated) showed an IC50 (Mus musculus [1]; read-out: IC50) of 99 µM.
With `C=CC(OC(C)=O)c1cccc(OC(C)=O)c1` (configuration not stated) the IC50 (Mus musculus [1]; read-out: IC50) was > 100 µM and the Inhibition (Mus musculus [2]) was 20%.
In the case of `C=CC(O)c1cccc(O)c1` (configuration not stated), the IC50 (Mus musculus [1]; read-out: IC50) is reported as > 100 µM and the Inhibition (Mus musculus [2]) is reported as 1%.
`CCC(=O)Oc1ccc(C(CC)OC(=O)CC)cc1` (configuration not stated) gave an IC50 (Mus musculus [1]; read-out: IC50) of 59 µM.
For `C=CC(OC(C)=O)c1cccc(O)c1` (configuration not stated), the IC50 (Mus musculus [1]; read-out: IC50) was > 100 µM and the Inhibition (Mus musculus [2]) was 25%.
In the case of `CCC(OC(C)=O)c1ccc(OC(C)=O)cc1` (configuration not stated), the IC50 (Mus musculus [1]; read-out: IC50) is reported as 10 µM.
With `C=CC(O)c1ccccc1O` (configuration not stated) the IC50 (Mus musculus [1]; read-out: IC50) was > 100 µM and the Inhibition (Mus musculus [2]) was 0%.
For `CCCC(OC(C)=O)c1ccc(OC(C)=O)cc1` (configuration not stated), the IC50 (Mus musculus [1]; read-out: IC50) was 47 µM.
In the case of `C=CC(O)c1ccc(O)cc1` (configuration not stated), the IC50 (Mus musculus [1]; read-out: IC50) is reported as > 100 µM and the Inhibition (Mus musculus [2]) is reported as -1%.
In the case of `CCC(O)c1ccc(O)cc1` (configuration not stated), the IC50 (Mus musculus [1]; read-out: IC50) is reported as > 100 µM and the Inhibition (Mus musculus [2]) is reported as 11%.
For `C=CC(O)c1ccc(OC)cc1` (configuration not stated), the Cytotoxicity [3] was 100 µM, the IC50 (Mus musculus [1]; read-out: IC50) was > 30 µM and the Inhibition (Mus musculus [2]) was -3%.
With `C=C[C@H](O)c1ccc(OC(C)=O)cc1` the IC50 (Mus musculus [1]; read-out: IC50) was > 100 µM and the Inhibition (Mus musculus [2]) was 46%.
In the case of `C=C[C@H](O)c1ccccc1`, the IC50 (Mus musculus [1]; read-out: IC50) is reported as > 100 µM and the Inhibition (Mus musculus [2]) is reported as 19%.
For `CC[C@H](O)c1ccccc1`, the IC50 (Mus musculus [1]; read-out: IC50) was > 100 µM and the Inhibition (Mus musculus [2]) was -4%.
In the case of `C=CC(OC(C)=O)c1ccc(OC(C)=O)cc1` (configuration not stated), the IC50 (Mus musculus [1]; read-out: IC50) is reported as 4.9 µM.
Work on `C=CC(OC(C)=O)c1ccccc1OC(C)=O` (configuration not stated) yielded an IC50 (Mus musculus [1]; read-out: IC50) of 3.2 µM.
`C=C[C@@H](OC(C)=O)c1ccc(OC(C)=O)cc1` showed an IC50 (Mus musculus [1]; read-out: IC50) of 8.2 µM.
Work on `C=CCC(OC(C)=O)c1ccc(OC(C)=O)cc1` (configuration not stated) yielded an IC50 (Mus musculus [1]; read-out: IC50) of 9.2 µM.
Molecule `CC(=O)OC/C=C/c1ccc(OC(C)=O)cc1` has an IC50 (Mus musculus [1]; read-out: IC50) of 19 µM.
In the case of `O=C(O)/C=C/c1cccc(O)c1`, the IC50 (Mus musculus [1]; read-out: IC50) is reported as > 100 µM and the Inhibition (Mus musculus [2]) is reported as 3%.
Work on `C=C[C@H](OC(C)=O)c1ccc(OC(C)=O)cc1` [1'-ACETOXYCHAVICOL ACETATE] yielded an IC50 (Mus musculus [1]; read-out: IC50) of 2.3 µM.
In the case of `COc1ccc(/C=C/C(=O)O)cc1` [4-METHOXYCINNAMIC ACID], the IC50 (Mus musculus [1]; read-out: IC50) is reported as > 100 µM and the Inhibition (Mus musculus [2]) is reported as 27%.
Work on `CC(C)=O` [ACETONE] yielded an IC50 (Mus musculus [1]) of 7.3 µg/mL.
Molecule `O=C(/C=C/c1ccc(O)c(O)c1)OCCc1ccccc1` [CAFFEIC ACID PHENETHYL ESTER] has an IC50 (Mus musculus [1]; read-out: IC50) of 15 µM.
In the case of `O=C(O)/C=C/c1ccc(O)c(O)c1` [CAFFEIC ACID], the IC50 (Mus musculus [1]; read-out: IC50) is reported as > 100 µM and the Inhibition (Mus musculus [2]) is reported as 15%.
With `C=CCc1ccc(O)cc1` [CHAVICOL] the IC50 (Mus musculus [1]; read-out: IC50) was > 100 µM and the Inhibition (Mus musculus [2]) was 43%.
For `O=C(O)/C=C/c1ccccc1` [CINNAMIC ACID], the IC50 (Mus musculus [1]; read-out: IC50) was > 100 µM and the Inhibition (Mus musculus [2]) was 15%.
In the case of `C=CCc1ccc(O)c(OC)c1` [EUGENOL], the IC50 (Mus musculus [1]; read-out: IC50) is reported as > 100 µM and the Inhibition (Mus musculus [2]) is reported as 15%.
Work on `N=C(N)NCCSSCCNC(=N)N` [GUANIDINOETHYLDISULFIDE] yielded an IC50 (Mus musculus [1]; read-out: IC50) of 7.4 µM.
`C=CCc1ccc(O)c(O)c1` [HYDROXYCHAVICOL] gave an IC50 (Mus musculus [1]; read-out: IC50) of 15 µM.
In the case of `C=CCc1ccc(OC)c(OC)c1` [METHYLEUGENOL], the IC50 (Mus musculus [1]; read-out: IC50) is reported as > 100 µM and the Inhibition (Mus musculus [2]) is reported as 1%.
With `COc1ccc(/C=C/C(=O)O)cc1OC` [O,O'-DIMETHYLCAFFEIC ACID] the IC50 (Mus musculus [1]; read-out: IC50) was > 100 µM and the Inhibition (Mus musculus [2]) was 1%.
For `O=C(O)/C=C/c1ccccc1O` [O-COUMARIC ACID], the IC50 (Mus musculus [1]; read-out: IC50) was > 100 µM and the Inhibition (Mus musculus [2]) was 7%.
For `COc1cc(/C=C/C(=O)O)cc(OC)c1O` [SINAPINATE], the IC50 (Mus musculus [1]; read-out: IC50) was > 100 µM and the Inhibition (Mus musculus [2]) was 27%.
For `O=C/C=C/c1ccc(O)cc1` [p-HYDROXYCINNAMALDEHYDE], the IC50 (Mus musculus [1]; read-out: IC50) was 20 µM.

Source: ChEMBL document CHEMBL1143515, “Structure-activity relationships of 1'S-1'-acetoxychavicol acetate for inhibitory effect on NO production in lipopolysaccharide-activated mouse peritoneal macrophages” (Bioorg Med Chem Lett, 2005)
